According to ChEMBL document CHEMBL2069245 (Bioorg Med Chem Lett, 2012):
Values after ≈ are worked out from the molar mass of the structure shown.

Columns and labels:
[1] = target: T1, Cytochrome P450 1A2 (Homo sapiens, UniProt P05177)
T1 sequence (P05177 whole entry): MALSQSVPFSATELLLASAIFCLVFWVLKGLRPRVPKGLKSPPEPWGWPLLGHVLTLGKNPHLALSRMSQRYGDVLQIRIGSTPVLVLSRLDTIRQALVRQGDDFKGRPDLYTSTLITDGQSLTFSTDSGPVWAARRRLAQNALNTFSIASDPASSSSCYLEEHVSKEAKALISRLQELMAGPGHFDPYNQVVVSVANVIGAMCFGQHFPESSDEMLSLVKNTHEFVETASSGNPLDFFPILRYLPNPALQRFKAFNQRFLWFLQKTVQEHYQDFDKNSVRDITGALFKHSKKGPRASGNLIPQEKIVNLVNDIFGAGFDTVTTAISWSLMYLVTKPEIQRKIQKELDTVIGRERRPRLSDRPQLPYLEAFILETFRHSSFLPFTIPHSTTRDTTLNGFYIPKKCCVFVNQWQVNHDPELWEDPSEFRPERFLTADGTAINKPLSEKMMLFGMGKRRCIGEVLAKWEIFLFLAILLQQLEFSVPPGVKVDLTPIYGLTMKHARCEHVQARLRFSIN

[2] = target: Cytochrome P450 3A4 (Homo sapiens, UniProt P08684)
[3] = target: Cytochrome P450 2D6 (Homo sapiens, UniProt P10635)
[4] = target: T2, Neuropeptide Y receptor type 5 (Mus musculus, UniProt O70342); test: Displacement of [125I]PYY from mouse NPY Y5 receptor
T2 sequence (O70342 whole entry): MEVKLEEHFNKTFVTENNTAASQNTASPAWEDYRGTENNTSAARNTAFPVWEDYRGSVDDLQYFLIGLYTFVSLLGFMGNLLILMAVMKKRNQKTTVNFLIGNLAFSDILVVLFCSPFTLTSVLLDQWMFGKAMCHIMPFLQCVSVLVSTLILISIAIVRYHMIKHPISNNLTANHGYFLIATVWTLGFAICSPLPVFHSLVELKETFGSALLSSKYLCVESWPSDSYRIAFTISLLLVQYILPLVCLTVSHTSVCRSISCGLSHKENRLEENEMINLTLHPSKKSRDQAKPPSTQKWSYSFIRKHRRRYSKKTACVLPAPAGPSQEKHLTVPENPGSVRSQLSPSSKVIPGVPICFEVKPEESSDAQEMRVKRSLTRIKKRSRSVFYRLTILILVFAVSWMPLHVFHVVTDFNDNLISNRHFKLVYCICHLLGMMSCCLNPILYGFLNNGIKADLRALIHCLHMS

[5] = physchem; conditions: 1% DMSO, pH 6.8
[6] = target: Cytochrome P450 2C9 (Homo sapiens, UniProt P11712)
[7] = target: Cytochrome P450 2C19 (Homo sapiens, UniProt P33261)
[8] = in vitro; conditions: rat, liver microsomes
[9] = in vitro; conditions: human, liver microsomes

Chain of Cytochrome P450 2C19 (P33261 whole entry): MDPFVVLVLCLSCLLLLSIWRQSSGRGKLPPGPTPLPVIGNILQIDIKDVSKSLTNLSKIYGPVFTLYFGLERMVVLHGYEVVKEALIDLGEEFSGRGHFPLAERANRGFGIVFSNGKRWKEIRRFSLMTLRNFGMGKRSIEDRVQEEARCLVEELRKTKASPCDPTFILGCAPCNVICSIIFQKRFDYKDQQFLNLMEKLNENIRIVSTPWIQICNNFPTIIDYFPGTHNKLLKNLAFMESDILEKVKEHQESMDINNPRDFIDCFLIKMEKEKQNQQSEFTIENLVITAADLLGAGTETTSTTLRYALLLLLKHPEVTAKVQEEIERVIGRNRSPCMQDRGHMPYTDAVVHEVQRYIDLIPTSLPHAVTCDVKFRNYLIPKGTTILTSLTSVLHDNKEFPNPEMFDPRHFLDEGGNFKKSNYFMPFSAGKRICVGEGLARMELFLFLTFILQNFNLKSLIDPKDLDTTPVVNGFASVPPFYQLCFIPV
Chain of Cytochrome P450 2D6 (P10635 whole entry): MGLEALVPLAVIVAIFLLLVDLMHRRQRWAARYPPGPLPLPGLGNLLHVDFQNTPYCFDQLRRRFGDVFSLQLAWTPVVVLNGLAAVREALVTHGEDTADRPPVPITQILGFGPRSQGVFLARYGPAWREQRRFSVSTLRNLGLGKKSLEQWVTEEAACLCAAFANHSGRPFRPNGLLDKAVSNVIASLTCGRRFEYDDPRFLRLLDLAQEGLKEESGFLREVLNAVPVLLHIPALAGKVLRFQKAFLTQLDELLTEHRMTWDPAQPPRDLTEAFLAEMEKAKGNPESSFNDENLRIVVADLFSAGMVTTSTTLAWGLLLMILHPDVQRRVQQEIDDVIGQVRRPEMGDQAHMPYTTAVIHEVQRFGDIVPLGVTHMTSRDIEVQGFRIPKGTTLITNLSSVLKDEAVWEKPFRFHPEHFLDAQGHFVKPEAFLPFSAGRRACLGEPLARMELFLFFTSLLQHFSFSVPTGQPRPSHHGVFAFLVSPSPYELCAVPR
Chain of Cytochrome P450 2C9 (P11712 whole entry): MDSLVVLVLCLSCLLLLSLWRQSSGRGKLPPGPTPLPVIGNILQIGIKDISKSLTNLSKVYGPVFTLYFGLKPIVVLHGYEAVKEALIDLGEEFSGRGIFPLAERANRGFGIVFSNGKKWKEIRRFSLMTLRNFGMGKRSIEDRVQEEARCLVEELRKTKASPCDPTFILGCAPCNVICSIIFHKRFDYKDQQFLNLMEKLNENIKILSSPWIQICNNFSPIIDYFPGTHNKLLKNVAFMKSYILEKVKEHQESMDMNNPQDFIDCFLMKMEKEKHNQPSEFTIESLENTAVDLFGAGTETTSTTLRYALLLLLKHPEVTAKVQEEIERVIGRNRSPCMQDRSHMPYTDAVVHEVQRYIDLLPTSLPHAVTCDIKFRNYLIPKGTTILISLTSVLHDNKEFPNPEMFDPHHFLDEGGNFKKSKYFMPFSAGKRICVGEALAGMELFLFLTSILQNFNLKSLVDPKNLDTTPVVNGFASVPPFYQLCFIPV
Chain of Cytochrome P450 3A4 (P08684 whole entry): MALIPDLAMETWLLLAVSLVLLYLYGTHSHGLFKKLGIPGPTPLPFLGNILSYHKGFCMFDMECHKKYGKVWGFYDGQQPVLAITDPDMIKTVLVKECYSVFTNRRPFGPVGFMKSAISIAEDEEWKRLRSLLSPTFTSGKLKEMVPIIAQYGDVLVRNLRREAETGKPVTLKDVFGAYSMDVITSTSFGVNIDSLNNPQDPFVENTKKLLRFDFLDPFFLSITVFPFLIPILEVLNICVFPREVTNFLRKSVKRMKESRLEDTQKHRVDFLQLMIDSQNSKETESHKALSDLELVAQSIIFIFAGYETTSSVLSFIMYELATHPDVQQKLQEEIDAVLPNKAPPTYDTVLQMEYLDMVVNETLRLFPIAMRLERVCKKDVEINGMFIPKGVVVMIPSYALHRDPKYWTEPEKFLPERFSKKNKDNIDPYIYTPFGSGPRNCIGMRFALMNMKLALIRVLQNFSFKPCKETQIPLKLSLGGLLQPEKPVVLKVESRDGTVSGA

Row | IC50 [1] [µM] | IC50 [2] [µM] | IC50 [3] [µM] | IC50 [4] [µM] | solubility kinetic [5] [µM] | IC50 [6] [µM] | IC50 [7] [µM] | remaining at 0.5 h [8] [%] | remaining at 0.5 h [9] [%] | SMILES
1 | – | – | – | 0.00046 | – | – | – | – | – | CCS(=O)(=O)c1ccc2[nH]c(-c3cccc(-c4ccccc4)c3)nc2c1
2 | 2.9 | > 20 | > 20 | 4.66 | > 50 | – | – | – | – | CCCS(=O)(=O)c1ccc2nc(-c3ccccc3)[nH]c2c1
3 | > 20 | 11 | 15 | 4.06 | 23.6 (≈ 8.88 µg/mL) | 4.5 | > 20 | – | – | CCCS(=O)(=O)c1ccc2[nH]c(-c3ccccc3-c3ccccc3)nc2c1
4 | 2.7 | 6 | > 20 | 0.00043 | 0.5 (≈ 0.188 µg/mL) | – | – | 57.1 | 68.6 | CCCS(=O)(=O)c1ccc2[nH]c(-c3cccc(-c4ccccc4)c3)nc2c1
5 | > 20 | 2.9 | 15 | – | – | – | – | – | – | CCCS(=O)(=O)c1ccc2nc(-c3ccc(-c4ccccc4)cc3)[nH]c2c1
6 | – | – | – | 0.00054 | – | – | – | – | – | CCS(=O)(=O)c1ccc2[nH]c(-c3cc(-c4ccccc4)ccc3F)nc2c1
7 | 3 | 3.8 | 18 | 0.0405 | 1.5 (≈ 0.595 µg/mL) | – | – | – | – | CCS(=O)(=O)c1ccc2[nH]c(-c3cccc(-c4ccccc4)c3Cl)nc2c1
8 | 8.5 | 2.6 | 18 | 0.00016 | – | – | – | – | – | CCS(=O)(=O)c1ccc2[nH]c(-c3ccc(Cl)c(-c4ccccc4)c3)nc2c1
9 | – | – | – | 0.0389 | – | – | – | – | – | CCS(=O)(=O)c1ccc2[nH]c(-c3cccc(-c4ccccc4)n3)nc2c1
10 | > 20 | > 20 | > 20 | – | – | > 20 | > 20 | 78.6 | 88.5 | CCCS(=O)(=O)c1ccc2[nH]c(-c3ccc(=O)n(-c4ccccc4)c3)nc2c1
11 | > 20 | > 20 | > 20 | 0.00029 | 7.7 (≈ 3.34 µg/mL) | – | – | 93.6 | 94.7 | O=c1ccc(-c2nc3cc(S(=O)(=O)CC(F)(F)F)ccc3[nH]2)cn1-c1ccccc1
12 | > 20 | > 20 | > 20 | 0.579 | 2 (≈ 0.787 µg/mL) | > 20 | > 20 | – | – | CCCS(=O)(=O)c1ccc2nc(-c3cn(-c4ccccc4)ccc3=O)[nH]c2c1
13 | > 20 | > 20 | > 20 | – | – | > 20 | > 20 | – | – | CCCS(=O)(=O)c1ccc2[nH]c(-c3cccn(-c4ccccc4)c3=O)nc2c1

Further lines, the compound ahead of its results:

Row | SMILES | IC50 [1] [µM] | IC50 [2] [µM] | IC50 [3] [µM] | IC50 [4] [µM] | solubility kinetic [5] [µM] | IC50 [6] [µM] | IC50 [7] [µM] | remaining at 0.5 h [8] [%] | remaining at 0.5 h [9] [%]
14 | CCS(=O)(=O)c1ccc2nc(-c3ccc(C)c(-c4ccccc4)c3)[nH]c2c1 | 3.2 | 5.7 | > 20 | – | – | – | – | – | –
15 | CCCS(=O)(=O)c1ccc2nc(-c3cccc(C(F)(F)F)c3)[nH]c2c1 | 0.4 | 20 | > 20 | – | – | – | – | – | –
16 | CCCS(=O)(=O)c1ccc2nc(-c3cccc(OC(F)(F)F)c3)[nH]c2c1 | – | – | – | 0.0019 | – | – | – | – | –
17 | CCS(=O)(=O)c1ccc2nc(-c3cccc(-c4ccccc4)c3F)[nH]c2c1 | 1.1 | 6.6 | > 20 | 0.0027 | 0.6 (≈ 0.228 µg/mL) | – | – | – | –
18 | CCS(=O)(=O)c1ccc2nc(-c3ccc(F)c(-c4ccccc4)c3)[nH]c2c1 | 3.4 | 5.6 | 16 | 0.00016 | 0.2 (≈ 0.0761 µg/mL) | – | – | – | –
19 | CCS(=O)(=O)c1ccc2nc(-c3cc(-c4ccccc4)ccc3Cl)[nH]c2c1 | 0.4 | 5 | 15 | 0.0311 | 0.4 (≈ 0.159 µg/mL) | – | – | – | –
20 | CCS(=O)(=O)c1ccc2nc(-c3cccc(-c4ccccc4)c3C)[nH]c2c1 | 7.8 | 5.2 | > 20 | 0.0218 | 3.2 (≈ 1.2 µg/mL) | – | – | – | –
21 | CCS(=O)(=O)c1ccc2nc(-c3cc(-c4ccccc4)ccc3C)[nH]c2c1 | 0.4 | – | 14 | 0.383 | 0.5 (≈ 0.188 µg/mL) | – | – | – | –
22 | CCS(=O)(=O)c1ccc2nc(-c3cc(-c4ccccc4)ccn3)[nH]c2c1 | – | – | – | 0.00055 | – | – | – | – | –
23 | CCS(=O)(=O)c1ccc2[nH]c(-c3cncc(-c4ccccc4)c3)nc2c1 | 6.3 | 7.8 | > 20 | – | – | – | – | – | –
24 | CCS(=O)(=O)c1ccc2[nH]c(-c3ccnc(-c4ccccc4)c3)nc2c1 | 3.4 | 8.7 | > 20 | 0.00031 | 20.3 (≈ 7.38 µg/mL) | – | – | – | –
25 | CC(C)(C)S(=O)(=O)c1ccc2nc(-c3ccc(=O)n(-c4ccccc4)c3)[nH]c2c1 | > 20 | > 20 | > 20 | 0.0075 | 9.4 (≈ 3.83 µg/mL) | – | – | > 99.9 | 94.2
26 | O=c1ccc(-c2nc3ccc(S(=O)(=O)C(F)(F)F)cc3[nH]2)cn1-c1ccccc1 | – | – | – | 0.0025 | – | – | – | – | –
